From ChEMBL document CHEMBL4825716, “Novel N-Heteroaryl Quinazolin-2-amine Derivatives as LRRK2 Inhibitors for Treating Parkinson's Disease” (ACS Med Chem Lett, 2021)
pIC50: −log10 of the molar value.

Target: Leucine-rich repeat serine/threonine-protein kinase 2 (Homo sapiens, UniProt Q5S007, G2019S)
Test: Inhibition of Kinase tracer 236 binding to GST-tagged truncated human LRRK2 G2019S (970 to 2527 residues) mutant using fluorescein labeled LRRKtide peptide as substrate preincubated for 15 mins followed by substrate addition measured after 90 mins in presence of ATP at Km concentration by TR-FRET Lanthascreen assay

Sequence of Leucine-rich repeat serine/threonine-protein kinase 2 (Q5S007 whole entry G2019S, the tested form may be a part): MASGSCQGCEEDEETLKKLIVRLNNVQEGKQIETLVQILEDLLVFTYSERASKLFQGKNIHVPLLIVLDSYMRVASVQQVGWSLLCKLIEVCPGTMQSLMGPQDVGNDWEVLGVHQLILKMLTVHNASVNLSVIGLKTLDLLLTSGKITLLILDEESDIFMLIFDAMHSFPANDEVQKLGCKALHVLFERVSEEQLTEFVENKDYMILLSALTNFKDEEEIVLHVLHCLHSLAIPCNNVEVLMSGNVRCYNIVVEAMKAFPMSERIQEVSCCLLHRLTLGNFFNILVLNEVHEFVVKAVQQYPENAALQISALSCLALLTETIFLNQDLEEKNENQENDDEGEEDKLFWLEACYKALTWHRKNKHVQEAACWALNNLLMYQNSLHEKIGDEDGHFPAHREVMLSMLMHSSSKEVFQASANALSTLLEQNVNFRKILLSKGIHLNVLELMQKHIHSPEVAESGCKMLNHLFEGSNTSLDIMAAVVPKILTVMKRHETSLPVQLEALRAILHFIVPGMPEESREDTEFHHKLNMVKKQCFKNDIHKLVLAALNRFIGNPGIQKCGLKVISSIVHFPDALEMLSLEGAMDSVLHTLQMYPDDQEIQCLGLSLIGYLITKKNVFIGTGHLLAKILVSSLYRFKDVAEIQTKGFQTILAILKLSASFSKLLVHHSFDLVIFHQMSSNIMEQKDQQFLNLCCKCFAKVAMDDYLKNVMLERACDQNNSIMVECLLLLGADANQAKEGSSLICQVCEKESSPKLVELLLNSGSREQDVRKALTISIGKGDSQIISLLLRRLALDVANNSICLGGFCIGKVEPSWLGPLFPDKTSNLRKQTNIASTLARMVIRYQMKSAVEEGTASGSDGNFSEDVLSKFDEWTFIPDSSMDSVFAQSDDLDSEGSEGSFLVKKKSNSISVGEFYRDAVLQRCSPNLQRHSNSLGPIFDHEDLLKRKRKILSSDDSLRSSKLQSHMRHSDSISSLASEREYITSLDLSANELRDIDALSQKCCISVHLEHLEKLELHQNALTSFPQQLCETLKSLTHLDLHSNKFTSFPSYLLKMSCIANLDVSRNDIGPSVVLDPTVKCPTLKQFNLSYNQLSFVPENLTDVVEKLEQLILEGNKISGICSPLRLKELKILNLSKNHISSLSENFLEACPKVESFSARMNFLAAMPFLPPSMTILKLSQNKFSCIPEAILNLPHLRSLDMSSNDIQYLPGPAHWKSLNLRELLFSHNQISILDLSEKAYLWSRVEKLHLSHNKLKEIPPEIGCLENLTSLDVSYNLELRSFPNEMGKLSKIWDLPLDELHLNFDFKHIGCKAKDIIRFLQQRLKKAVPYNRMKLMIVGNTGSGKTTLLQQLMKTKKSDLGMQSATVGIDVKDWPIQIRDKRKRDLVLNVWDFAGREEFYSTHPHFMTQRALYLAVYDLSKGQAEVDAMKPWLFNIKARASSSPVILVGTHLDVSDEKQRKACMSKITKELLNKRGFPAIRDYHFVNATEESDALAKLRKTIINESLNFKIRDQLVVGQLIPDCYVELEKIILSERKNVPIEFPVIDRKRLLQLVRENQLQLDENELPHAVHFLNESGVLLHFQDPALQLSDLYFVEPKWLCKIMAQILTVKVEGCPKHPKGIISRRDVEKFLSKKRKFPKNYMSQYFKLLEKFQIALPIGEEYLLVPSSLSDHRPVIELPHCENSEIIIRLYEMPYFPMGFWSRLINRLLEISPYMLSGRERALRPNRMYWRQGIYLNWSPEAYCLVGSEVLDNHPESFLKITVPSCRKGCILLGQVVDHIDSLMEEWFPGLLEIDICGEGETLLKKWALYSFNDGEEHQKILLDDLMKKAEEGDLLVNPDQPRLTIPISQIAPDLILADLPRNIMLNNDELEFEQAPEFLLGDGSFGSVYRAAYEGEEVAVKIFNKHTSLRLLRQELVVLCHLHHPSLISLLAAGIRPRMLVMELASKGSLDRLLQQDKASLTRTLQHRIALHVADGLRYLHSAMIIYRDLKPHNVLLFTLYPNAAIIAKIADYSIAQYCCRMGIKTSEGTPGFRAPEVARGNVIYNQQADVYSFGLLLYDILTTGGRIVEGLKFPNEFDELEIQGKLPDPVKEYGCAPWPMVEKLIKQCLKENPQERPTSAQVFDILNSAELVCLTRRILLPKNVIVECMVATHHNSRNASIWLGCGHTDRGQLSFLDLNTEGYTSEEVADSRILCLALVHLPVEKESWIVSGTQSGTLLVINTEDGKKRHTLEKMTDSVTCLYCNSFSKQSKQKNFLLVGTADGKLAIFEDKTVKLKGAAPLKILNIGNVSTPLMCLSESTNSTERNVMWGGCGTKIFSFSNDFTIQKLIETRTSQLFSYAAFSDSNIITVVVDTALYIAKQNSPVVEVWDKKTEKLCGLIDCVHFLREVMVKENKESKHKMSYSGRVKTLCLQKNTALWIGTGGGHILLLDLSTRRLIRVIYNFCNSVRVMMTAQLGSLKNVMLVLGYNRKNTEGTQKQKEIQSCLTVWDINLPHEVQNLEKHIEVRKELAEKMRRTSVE

SMILES | pIC50
Cc1c(Nc2ncc3cc(Cl)c(C4CCN(C5(C)COC5)CC4)cc3n2)cnn1C1CCOC1 (stereo unspecified) | > 9.20
O=S1(=O)CC(N2CCC(c3cc4nc(Nc5cnn(C6CC6)c5Cl)ncc4cc3Cl)CC2)C1 | > 9.20
Cc1c(Nc2ncc3cc(Cl)c(C4CCN(C5COC5)[C@@H](C)C4)cc3n2)cnn1C1CC1 (stereo partly specified) | > 9.20
N#CC1COCC1N1CCC(c2cc3nc(Nc4cnn(C5CC5)c4Cl)ncc3cc2Cl)CC1 (stereo unspecified) | > 9.20
Cc1c(Nc2ncc3cc(Cl)c(C4CCN(C5COCC5F)CC4)cc3n2)cnn1C1CC1 (stereo unspecified) | > 9.20
Cc1cc(Nc2ncc3cc(Cl)c(C4CCN(C5COC5)CC4)cc3n2)sn1 | > 9.20
